Test results: PubChem BioAssay AID274 (DTP/NCI, 2004)
“And” between values parts separate entries of the source, which are not always exact repeats. Identical values can stand only once. Toxic doses and inconclusive results are not listed.

Tested on: BDF1 mice, Lewis lung carcinoma iv, survival T/C
Assay: NCI In Vivo Anticancer Drug Screen. Data for tumor model Lewis Lung Carcinoma (intravenous) in B6D2F1 (BDF1) mice
Conditions: endpoint: median survival time, higher = longer survival
Protocol: The antitumor activity of compounds was measured in mice bearing transplantable tumors. Survival or tumor size were measured and the results are expressed as the measurement made in the treated group (T) divided by the measurement made in the vehicle treated control group (C). The tumor model used in this assay is Lewis Lung Carcinoma (intravenous) in B6D2F1 (BDF1) mice

[1] = dose: 25.0 mg/kg/injection, schedule: Q01DX009 (ip), vehicle: saline with Tween-80
[2] = dose: 50.0 mg/kg/injection, schedule: Q01DX009 (ip), vehicle: saline with Tween-80
[3] = dose: 100.0 mg/kg/injection, schedule: Q01DX009 (ip), vehicle: saline with Tween-80
[4] = dose: 3.13 mg/kg/injection, schedule: Q01DX009 (ip), vehicle: saline with Tween-80
[5] = dose: 6.25 mg/kg/injection, schedule: Q01DX009 (ip), vehicle: saline with Tween-80
[6] = dose: 12.5 mg/kg/injection, schedule: Q01DX009 (ip), vehicle: saline with Tween-80
[7] = dose: 6.25 mg/kg/injection, schedule: Q01DX009 (ip), vehicle: saline
[8] = dose: 25.0 mg/kg/injection, schedule: Q01DX009 (ip), vehicle: saline
[9] = dose: 12.5 mg/kg/injection, schedule: Q01DX009 (ip), vehicle: saline
[10] = dose: 50.0 mg/kg/injection, schedule: Q01DX009 (ip), vehicle: saline
[11] = dose: 100.0 mg/kg/injection, schedule: Q01DX009 (ip), vehicle: saline
[12] = dose: 200.0 mg/kg/injection, schedule: Q01DX009 (ip), vehicle: saline

## CCCCCCCCCCCCOP(N)(=O)OCCCCCCCCCCCC
[1]
  T/C: 97 % of control
[2]
  T/C: 93 % of control
[3]
  T/C: 91 % of control

## C=CCCC(=O)CCCC(=O)O[C@@H]1[C@@H]2[C@H](CC1(C)C)[C@H](O)[C@@]13O[C@@H]1[C@H](O)[C@@]1(CO1)[C@@]23C
dose: 6.2 micrograms/kg/injection, schedule: Q01DX009 (ip), vehicle: Klucel (hydroxypropylcellulose) (HPC)
  T/C: 116 % of control
dose: 12.5 micrograms/kg/injection, schedule: Q01DX009 (ip), vehicle: Klucel (hydroxypropylcellulose) (HPC)
  T/C: 120 % of control
dose: 25.0 micrograms/kg/injection, schedule: Q01DX009 (ip), vehicle: Klucel (hydroxypropylcellulose) (HPC)
  T/C: 107 % of control
dose: 50.0 micrograms/kg/injection, schedule: Q01DX009 (ip), vehicle: Klucel (hydroxypropylcellulose) (HPC)
  T/C: 112 % of control

## ClCc1ccc2ccccc2n1
[1]
  T/C: 100 % of control
[2]
  T/C: 92 % of control
[3]
  T/C: 119 % of control

## NC(Cc1ccc(N(CCCl)CCCl)cc1)C(=O)O (stereo not given)
dose: 0.5 mg/kg/injection, schedule: Q01DX009 (ip), vehicle: Klucel (hydroxypropylcellulose) (HPC)
  T/C: 94 % of control
dose: 1.0 mg/kg/injection, schedule: Q01DX009 (ip), vehicle: Klucel (hydroxypropylcellulose) (HPC)
  T/C: 97 % of control
dose: 2.0 mg/kg/injection, schedule: Q01DX009 (ip), vehicle: Klucel (hydroxypropylcellulose) (HPC)
  T/C: 122 % of control

## Cn1cnc([N+](=O)[O-])c1Sc1nc(N)nc2c1ncn2C1OC(CO)C(O)C1O (stereo not given)
dose: 0.78 mg/kg/injection, schedule: Q01DX009 (ip), vehicle: saline with Tween-80
  T/C: 97 % of control
dose: 1.56 mg/kg/injection, schedule: Q01DX009 (ip), vehicle: saline with Tween-80
  T/C: 116 % of control
[4]
  T/C: 105 % of control
dose: 6.25 mg/kg/injection, schedule: Q01DX009 (ip), vehicle: suspension in saline
  T/C: 107 % of control

## CCC/C=C/C=C/C(=O)OC1/C(=C/C(=O)OC)CC2CC(C(C)O)OC(=O)CC(O)CC3CC(OC(C)=O)C(C)(C)C(O)(CC4C/C(=C/C(=O)OC)CC(/C=C/C(C)(C)C1(O)O2)O4)O3 (stereo not given)
dose: 18.75 micrograms/kg/injection, schedule: Q01DX009 (ip), vehicle: saline + alcohol
  T/C: 90 % of control
dose: 37.5 micrograms/kg/injection, schedule: Q01DX009 (ip), vehicle: saline + alcohol
  T/C: 98 % of control
dose: 75.0 micrograms/kg/injection, schedule: Q01DX009 (ip), vehicle: saline + alcohol
  T/C: 107 % of control

## Clc1cc(Cl)nc(N2CC2)n1
dose: 1.25 mg/kg/injection, schedule: Q01DX009 (ip), vehicle: saline
  T/C: 91 % of control
dose: 2.5 mg/kg/injection, schedule: Q01DX009 (ip), vehicle: saline
  T/C: 103 % of control
dose: 5.0 mg/kg/injection, schedule: Q01DX009 (ip), vehicle: saline with Tween-80
  T/C: 114 % of control
dose: 5.0 mg/kg/injection, schedule: Q01DX009 (ip), vehicle: saline
  T/C: 103 % of control

## COc1ccc(C(Cn2ccnc2)Sc2ccc(Cl)c(Cl)c2)cc1 (stereo not given)
[5]
  T/C: 95 % of control
[6]
  T/C: 97 % of control
[1]
  T/C: 96 % of control
[2]
  T/C: 100 % of control

## C[C@@H]1CN(C(=O)CCOS(C)(=O)=O)[C@@H](C)CN1C(=O)CCOS(C)(=O)=O
[2]
  T/C: 93 % of control
[3]
  T/C: 101 % of control

## O=C(O)CC(=O)O.[NH-]CC[NH-].[Pt+2]
[7]
  T/C: 111 % of control
[8]
  T/C: 156 % of control

## CC1(c2ccc(Cl)cc2)OC(=O)C(=Cc2ccc([N+](=O)[O-])s2)C(=O)O1 (stereo not given)
[6]
  T/C: 100 % of control
[1]
  T/C: 100 % of control
[2]
  T/C: 99 % of control
[3]
  T/C: 98 % of control

## O=C1c2c(O)ccc(O)c2C(=O)c2c(NCCNCCO)ccc(NCCNCCO)c21
dose: 1.0 mg/kg/injection, schedule: Q01DX005 (ip), vehicle: saline with Tween-80
  T/C: 276 % of control
dose: 2.0 mg/kg/injection, schedule: Q01DX005 (ip), vehicle: saline with Tween-80
  T/C: 115 % of control
dose: 4.0 mg/kg/injection, schedule: Q01DX005 (ip), vehicle: saline with Tween-80
  T/C: 116 % of control

## O=c1ccn(C2OC(CO)C(O)C2O)c(=O)[nH]1 (stereo not given)
dose: 32.0 mg/kg/injection, schedule: Q01DX009 (ip), vehicle: Klucel (hydroxypropylcellulose) (HPC)
  T/C: 109 % of control
dose: 64.0 mg/kg/injection, schedule: Q01DX009 (ip), vehicle: Klucel (hydroxypropylcellulose) (HPC)
  T/C: 96 % of control
dose: 128.0 mg/kg/injection, schedule: Q01DX009 (ip), vehicle: Klucel (hydroxypropylcellulose) (HPC)
  T/C: 96 % of control
dose: 256.0 mg/kg/injection, schedule: Q01DX009 (ip), vehicle: Klucel (hydroxypropylcellulose) (HPC)
  T/C: 110 % of control
dose: 512.0 mg/kg/injection, schedule: Q01DX009 (ip), vehicle: Klucel (hydroxypropylcellulose) (HPC)
  T/C: 106 % of control

## CN=C(N)N/N=C(\C)c1ccc2oc3ccc(/C(C)=N/NC(N)=NC)cc3c2c1
[6]
  T/C: 98 % of control
[1]
  T/C: 118 % of control

## C1CN1c1nc(N2CC2)nc(N2CC2)n1
dose: 0.06 mg/kg/injection, schedule: Q01DX009 (ip), vehicle: suspension in saline
  T/C: 105 % of control
dose: 0.12 mg/kg/injection, schedule: Q01DX009 (ip), vehicle: suspension in saline
  T/C: 101 % of control
dose: 0.25 mg/kg/injection, schedule: Q01DX009 (ip), vehicle: suspension in saline
  T/C: 112 % of control

## COc1ccc2ccccc2c1C1NC(=O)c2ccccc2N1 (stereo not given)
dose: 12.5 mg/kg/injection, schedule: Q01DX009 (ip), vehicle: Klucel (hydroxypropylcellulose) (HPC)
  T/C: 90 % of control
dose: 25.0 mg/kg/injection, schedule: Q01DX009 (ip), vehicle: Klucel (hydroxypropylcellulose) (HPC)
  T/C: 92 % of control
dose: 50.0 mg/kg/injection, schedule: Q01DX009 (ip), vehicle: Klucel (hydroxypropylcellulose) (HPC)
  T/C: 92 % of control
dose: 100.0 mg/kg/injection, schedule: Q01DX009 (ip), vehicle: Klucel (hydroxypropylcellulose) (HPC)
  T/C: 96 % of control
dose: 200.0 mg/kg/injection, schedule: Q01DX009 (ip), vehicle: Klucel (hydroxypropylcellulose) (HPC)
  T/C: 98 % of control
dose: 400.0 mg/kg/injection, schedule: Q01DX009 (ip), vehicle: Klucel (hydroxypropylcellulose) (HPC)
  T/C: 102 % of control

## CC(CN1CC(=O)NC(=O)C1)N1CC(=O)NC(=O)C1 (stereo not given)
dose: 64.8 mg/kg/injection, schedule: Q04DX003 (ip), vehicle: Klucel (hydroxypropylcellulose) (HPC)
  T/C: 110 % of control and 112 % of control and 119 % of control
dose: 108.0 mg/kg/injection, schedule: Q04DX003 (ip), vehicle: Klucel (hydroxypropylcellulose) (HPC)
  T/C: 111 % of control and 114 % of control
dose: 300.0 mg/kg/injection, schedule: Q04DX003 (ip), vehicle: Klucel (hydroxypropylcellulose) (HPC)
  T/C: 154 % of control and 178 % of control

## [Cl][Sn]([c]1ccccc1)[c]1ccccc1
dose: 3.12 mg/kg/injection, schedule: Q01DX009 (ip), vehicle: saline
  T/C: 104 % of control
[7]
  T/C: 97 % of control
[9]
  T/C: 98 % of control

## O=C(O)CC[S-].[Ag+]
[2]
  T/C: 99 % of control
[3]
  T/C: 102 % of control
dose: 200.0 mg/kg/injection, schedule: Q01DX009 (ip), vehicle: saline with Tween-80
  T/C: 91 % of control

## CCOC(=O)C1=C(C#N)C2(CCC(OCc3ccccc3)CC2)C(=O)O1 (stereo not given)
[9]
  T/C: 94 % of control
[8]
  T/C: 95 % of control
[10]
  T/C: 98 % of control
[11]
  T/C: 106 % of control
[12]
  T/C: 114 % of control
dose: 400.0 mg/kg/injection, schedule: Q01DX009 (ip), vehicle: saline
  T/C: 89 % of control

## CC(=O)OCc1ncccc1OC(C)=O
[8]
  T/C: 97 % of control
[10]
  T/C: 100 % of control
[11]
  T/C: 101 % of control
[12]
  T/C: 104 % of control

## CC(=O)OCC1OC(n2cnc3c(=S)nc[nH]c32)C(OC(C)=O)C1OC(C)=O (stereo not given)
dose: 50.0 mg/kg/injection, schedule: Q01DX009 (ip), vehicle: suspension in saline
  T/C: 100 % of control

## CCCC(=O)O
[9]
  T/C: 93 % of control
[8]
  T/C: 104 % of control
[10]
  T/C: 95 % of control
[11]
  T/C: 112 % of control

## CC/C(=C(/CC)c1ccc(O)cc1)c1ccc(O)cc1
dose: 12.5 mg/kg/injection, schedule: Q01DX009 (ip), vehicle: water
  T/C: 123 % of control
dose: 25.0 mg/kg/injection, schedule: Q01DX009 (ip), vehicle: water
  T/C: 102 % of control
dose: 50.0 mg/kg/injection, schedule: Q01DX009 (ip), vehicle: water
  T/C: 102 % of control
dose: 100.0 mg/kg/injection, schedule: Q01DX009 (ip), vehicle: water
  T/C: 106 % of control
dose: 200.0 mg/kg/injection, schedule: Q01DX009 (ip), vehicle: water
  T/C: 120 % of control

## Nc1nc(N)c2c(Cl)c(CNc3ccc(Cl)c(Cl)c3)ccc2n1
[4]
  T/C: 102 % of control
[5]
  T/C: 99 % of control
[6]
  T/C: 108 % of control
[1]
  T/C: 111 % of control
[2]
  T/C: 98 % of control

## O=[N+]([O-])c1cc([N+](=O)[O-])c(Nn2c3ccccc3c3ccccc32)c([N+](=O)[O-])c1
[6]
  T/C: 114 % of control
[1]
  T/C: 105 % of control
[2]
  T/C: 91 % of control

## NC(=O)C(F)C(N)C(=O)O (stereo not given)
[8]
  T/C: 99 % of control
[10]
  T/C: 100 % of control
[11]
  T/C: 103 % of control
